Data from patent US11377423B2, “Inhibitors of histone deacetylase” (The Broad Institute, Inc., priority 2012, dated 2022).

Tested on: INS-1E cells
Assay: ROS formation (CM-H2DCFDA probe)
Format: cell-based, rat
Settings: 10 μM, GLT, 48 hrs
Experimental: INS-1E cells (50,000 cells/well) were seeded in 96-well plates in 100 uL complete medium. Two days after incubation, medium was removed and cells exposed to 100 uL medium/well with the indicated concentrations of palmitate, glucose, test compounds and/or vehicle. After 24 hours, cells were aspirated and incubated for 45 min in phenol […] RPMI (Invitrogen) containing 10 μM CM-H2DCFDA probe (Molecular Probes). Wells were subsequently washed twice with phenol red-free RMPI, incubated for 3 min with Hoechst 33342 (10 ug/mL) in phenol red-free media, followed by a final washing step. Fluorescence was captured by an IX Micro automated fluorescence microscope (Molecular Devices) and quantification of ROS per cell was analyzed using MetaXpress software (Molecular Devices). Each condition was assayed in five biological replicates. Glucolipotoxicity causes oxidative stress in β cells via increased ROS formation from mitochondria. […] ROS formation per cell (48 hrs) was measured using the CM-H2DCFDA probe and Hoechst staining. Data are presented as fold to CTRL+SEM n=3-4, ns=not significant, **p<0.01, ***p<0.001 vs unexposed cells; #p<0.05, ##p<0.01, vs. GLT treated cells, ANOVA with Tukey corrected test.

## CC(=O)Nc1ccc(C(=O)Nc2ccc(F)cc2N)cc1 [Compound 1, 4-acetamido-N-(2-amino-4-fluorophenyl)benzamide]
  glucolipotoxicity-induced ROS formation: reduces glucolipotoxicity-induced ROS formation
